Measured values reported in article doi:10.1101/2023.11.24.568596v1 (biorxiv, 2023).

Tests used:
Conditions in all cases: binder
Erk7 = molecular target: T1, Erk7 (Homo sapiens, UniProt Q8TD08)
T1 sequence (Q8TD08 1-544): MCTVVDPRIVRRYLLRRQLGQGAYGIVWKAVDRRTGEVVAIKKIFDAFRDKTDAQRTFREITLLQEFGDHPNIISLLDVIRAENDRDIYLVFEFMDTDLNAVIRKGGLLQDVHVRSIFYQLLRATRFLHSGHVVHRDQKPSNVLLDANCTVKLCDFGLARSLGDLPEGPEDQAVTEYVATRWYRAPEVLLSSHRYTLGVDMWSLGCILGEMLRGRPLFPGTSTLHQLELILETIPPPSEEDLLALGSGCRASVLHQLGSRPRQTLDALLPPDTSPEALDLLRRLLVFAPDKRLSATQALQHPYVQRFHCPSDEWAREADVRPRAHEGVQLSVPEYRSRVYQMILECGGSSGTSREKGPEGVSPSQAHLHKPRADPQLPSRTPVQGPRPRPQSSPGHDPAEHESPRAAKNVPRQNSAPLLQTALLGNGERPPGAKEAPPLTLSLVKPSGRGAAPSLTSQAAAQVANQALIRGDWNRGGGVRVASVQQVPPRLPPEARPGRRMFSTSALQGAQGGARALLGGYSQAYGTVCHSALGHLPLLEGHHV

GAK = molecular target: T2, GAK (Homo sapiens, UniProt O14976)
T2 sequence (O14976 1-1311): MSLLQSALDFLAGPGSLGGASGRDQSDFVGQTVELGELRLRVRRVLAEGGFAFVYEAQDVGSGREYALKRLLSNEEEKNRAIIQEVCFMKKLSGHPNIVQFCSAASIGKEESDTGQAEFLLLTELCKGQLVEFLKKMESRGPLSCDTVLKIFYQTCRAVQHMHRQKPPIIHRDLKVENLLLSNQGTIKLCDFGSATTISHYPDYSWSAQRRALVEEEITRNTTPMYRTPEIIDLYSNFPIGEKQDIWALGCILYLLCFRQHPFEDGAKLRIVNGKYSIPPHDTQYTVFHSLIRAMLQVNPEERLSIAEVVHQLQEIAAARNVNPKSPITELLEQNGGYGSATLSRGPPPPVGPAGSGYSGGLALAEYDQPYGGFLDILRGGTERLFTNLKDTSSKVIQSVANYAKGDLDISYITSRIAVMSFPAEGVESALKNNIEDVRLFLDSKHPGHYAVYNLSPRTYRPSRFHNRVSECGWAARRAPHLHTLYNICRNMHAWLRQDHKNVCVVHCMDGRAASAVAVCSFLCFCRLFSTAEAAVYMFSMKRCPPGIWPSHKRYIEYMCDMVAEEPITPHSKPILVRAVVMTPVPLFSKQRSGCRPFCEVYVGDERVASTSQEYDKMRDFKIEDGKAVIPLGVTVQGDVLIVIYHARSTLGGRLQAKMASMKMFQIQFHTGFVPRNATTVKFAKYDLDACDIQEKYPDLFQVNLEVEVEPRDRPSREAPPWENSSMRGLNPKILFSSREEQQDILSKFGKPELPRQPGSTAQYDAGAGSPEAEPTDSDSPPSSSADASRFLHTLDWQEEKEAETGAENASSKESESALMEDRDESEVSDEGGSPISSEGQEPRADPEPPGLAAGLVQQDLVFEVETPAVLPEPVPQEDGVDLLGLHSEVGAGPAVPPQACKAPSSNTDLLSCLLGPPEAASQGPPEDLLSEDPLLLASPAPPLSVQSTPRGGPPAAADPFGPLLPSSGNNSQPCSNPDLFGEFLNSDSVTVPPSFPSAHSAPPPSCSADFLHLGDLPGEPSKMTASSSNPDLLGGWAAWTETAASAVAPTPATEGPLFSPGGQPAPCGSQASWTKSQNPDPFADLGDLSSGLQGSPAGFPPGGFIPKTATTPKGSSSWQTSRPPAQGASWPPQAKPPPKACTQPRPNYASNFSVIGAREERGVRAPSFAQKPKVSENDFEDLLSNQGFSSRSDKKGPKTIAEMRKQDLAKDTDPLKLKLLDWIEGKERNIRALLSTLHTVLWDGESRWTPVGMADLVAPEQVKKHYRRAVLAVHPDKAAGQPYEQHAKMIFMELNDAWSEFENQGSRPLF

CaMK4 = molecular target: T3, CaMK4 (Homo sapiens, UniProt Q16566)
T3 sequence (Q16566 1-473): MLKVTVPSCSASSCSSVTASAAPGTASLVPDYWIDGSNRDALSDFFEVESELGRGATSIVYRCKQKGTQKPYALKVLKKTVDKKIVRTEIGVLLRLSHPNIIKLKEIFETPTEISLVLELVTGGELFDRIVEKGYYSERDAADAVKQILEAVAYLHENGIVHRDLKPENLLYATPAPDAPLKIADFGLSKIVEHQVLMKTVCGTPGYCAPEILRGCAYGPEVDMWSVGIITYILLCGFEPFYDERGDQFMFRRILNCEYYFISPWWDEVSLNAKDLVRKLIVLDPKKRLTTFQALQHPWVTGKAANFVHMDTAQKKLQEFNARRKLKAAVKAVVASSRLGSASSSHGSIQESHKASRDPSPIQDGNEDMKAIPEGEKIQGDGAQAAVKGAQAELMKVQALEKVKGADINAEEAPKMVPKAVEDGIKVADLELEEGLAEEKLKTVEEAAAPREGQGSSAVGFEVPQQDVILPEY

MST3 = MST3 (Homo sapiens, UniProt Q9Y6E0)
Chain of MST3 (Q9Y6E0 whole entry): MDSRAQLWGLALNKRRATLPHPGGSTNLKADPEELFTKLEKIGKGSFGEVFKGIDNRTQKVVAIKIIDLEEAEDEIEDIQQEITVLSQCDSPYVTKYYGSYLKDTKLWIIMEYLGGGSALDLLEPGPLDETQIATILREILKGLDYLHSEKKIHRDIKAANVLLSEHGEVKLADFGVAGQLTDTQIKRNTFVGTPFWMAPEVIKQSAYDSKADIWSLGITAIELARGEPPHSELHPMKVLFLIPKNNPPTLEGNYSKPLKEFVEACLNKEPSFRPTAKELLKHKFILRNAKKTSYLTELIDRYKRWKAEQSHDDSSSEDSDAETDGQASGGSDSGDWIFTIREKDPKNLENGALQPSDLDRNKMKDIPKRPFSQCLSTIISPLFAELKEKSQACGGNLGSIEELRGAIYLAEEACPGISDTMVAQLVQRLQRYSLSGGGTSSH

SMILES: CNc1ncc2cc(-c3ccc(-c4cccc(C)n4)cc3Cl)c(=O)n(CCCCN)c2n1 [compound 20, MRLW5]
- ΔTm MRLW5 (20) (Erk7): 1.0 °C
- ΔTm MRLW5 (20) (GAK): 7.7 °C
- ΔTm MRLW5 (20) (CaMK4): 2.9 °C
- ΔTm MRLW5 (20) (MST3): 11.7 °C

SMILES: CNc1ncc2cc(-c3ccc(-c4cccc(C)n4)cc3Cl)c(=O)n(CCC3CCNCC3)c2n1 [compound 22, 6-(2-Chloro-4-(6-methylpyridin-2-yl)phenyl)-2-(methylamino)-8-(2-(piperidin-4-yl)ethyl)pyrido[2,3-d]pyrimidin-7(8H)-one]
- ΔTm 22 (Erk7): 1.5 °C
- ΔTm 22 (GAK): 9.7 °C
- ΔTm 22 (CaMK4): 4.8 °C
- ΔTm 22 (MST3): 10.5 °C

SMILES: CNc1ncc2cc(-c3ccc(-c4cccc(C)n4)cc3Cl)c(=O)n(C[C@H]3CC[C@H](N)CC3)c2n1 [compound 23, 23]
- ΔTm 23 (Erk7): 4.2 °C
- ΔTm 23 (GAK): 9.3 °C
- ΔTm 23 (CaMK4): 6.9 °C
- ΔTm 23 (MST3): 10.8 °C

SMILES: Cc1cccc(-c2ccc(-c3cc4cnc(NC(CO)CO)nc4n(CCCCN)c3=O)c(Cl)c2)n1 [compound 24, 8-(4-Aminobutyl)-6-(2-chloro-4-(6-methylpyridin-2-yl)phenyl)-2-((1,3-dihydroxypropan-2-yl)amino)pyrido[2,3-d]pyrimidin-7(8H)-one]
- ΔTm MR24 (24) (Erk7): -0.4 °C
- ΔTm MR24 (24) (GAK): 3.9 °C
- ΔTm MR24 (24) (CaMK4): 1.2 °C
- ΔTm MR24 (24) (MST3): 11.0 °C

SMILES: Cc1cccc(-c2ccc(-c3cc4cnc(NCCCc5ccc(N)cc5)nc4n(CCCCN)c3=O)c(Cl)c2)n1 [compound 25, 8-(4-Aminobutyl)-2-((3-(4-aminophenyl)propyl)amino)-6-(2-chloro-4-(6-methylpyridin-2-yl)phenyl)pyrido[2,3-d]pyrimidin-7(8H)-one]
- ΔTm 25 (Erk7): 2.9 °C
- ΔTm 25 (GAK): 6.9 °C
- ΔTm 25 (CaMK4): 5.4 °C
- ΔTm 25 (MST3): 11.8 °C

SMILES: Cc1cccc(-c2ccc(-c3cc4cnc(NCCCN5CCOCC5)nc4n(CCCCN)c3=O)c(Cl)c2)n1 [compound 26, MR26]
- ΔTm MR26 (26) (Erk7): -0.4 °C
- ΔTm MR26 (26) (GAK): 3.6 °C
- ΔTm MR26 (26) (CaMK4): 2.2 °C
- ΔTm MR26 (26) (MST3): 12.4 °C
